Measured values published in patent US8449886B2, “Combination of anti-CTLA4 antibody with tubulin modulating agents for the treatment of proliferative diseases” (Bristol-Myers Squibb Company, priority 2008, dated 2013).

How the values were obtained:
EMT-6 mammary carcinoma = EMT-6 mammary carcinoma tumor model; assay type: in vivo, mice; settings: Study 27; for T − C: IP, treatment from day 3/4, ixabepilone 8 mg/kg, paclitaxel 24 mg/kg, CTLA-4 mAb 20 mg/kg
Protocol: (§1) Tumor cell lines were maintained in vitro. Treatments were initiated when the subcutaneous tumors reached a median size between 100-200 mm^3 (established model) or prior to detection (initiation model). Tumors were measured twice weekly and tumor size (mm^3) was calculated as […]. Body weights were obtained weekly. The tumor models used in these studies are outlined in Table 1.
(§2) The dose levels, routes and dosing schedules are indicated for each particular study described below. Antibodies and chemotherapeutic agents were administered intraperitoneally (i.p.). Each treatment regimen consisted of a cohort of eight to ten mice. Anti-tumor activity, defined as percentage tumor growth inhibition, was calculated as follows: % Tumor Growth Inhibition=100−[(Tt/To)/(Ct/Co)]/100−(Ct/Co) where,
(§3) In addition, another parameter used to define efficacy was to determine time to tumor progression to target size (T-C), where the time (days) for the median tumor size of control (C) mice to reach target size was subtracted to the time for median tumor size of treated (T) mice to reach target size.

CT26 colon carcinoma = CT26 colon carcinoma tumor model; assay type: in vivo, mice; settings: for antitumor effect in CT26: footnotes and FIG. 2
Protocol: as §1
The dose levels, routes and dosing schedules are indicated for each particular study described below. Antibodies and chemotherapeutic agents were administered intraperitoneally (i.p.). Each treatment regimen consisted of a cohort of eight to ten mice. Anti-tumor activity, defined as percentage tumor growth inhibition, was calculated as follows: % Tumor Growth Inhibition=100−[(Tt/To)/(Ct/Co)]/100−(Ct/Co) where, […]

M109 lung carcinoma [1] = experiment: M109 rechallenge of tumor-free mice with a lethal M109 cell inoculum; assay type: in vivo; settings: tumor-free mice by day 97 rechallenged; 5 ixabepilone mice, 8 combination mice
Protocol: To determine whether the combination of CTLA-4+ixabepilone produced a memory immune response able to reject a secondary tumor challenge, animals free of tumors by day 97 were re-challenge with a lethal M109 cell inoculum. For this part of the study, M109 cells were injected into: a) 10 naïve mice (to control for tumor growth); and in study mice free of tumors: b) 5 mice previously treated with ixabepilone and c) 8 mice previously treated with ixabepilone+CTLA-4 mAb. All control mice developed progressive tumors with a median tumor size of 1000 mm^3 10 days later whereas 4 out of 5 mice in the Ixabepilone-treated mice developed tumors (80%).

SA1N fibrosarcoma = SA1N fibrosarcoma tumor model, subcutaneous, established tumors; assay type: in vivo, mice; settings: for % TGI: IP every 4 days x3, ixabepilone 8 mg/kg, CTLA-4 mAb 20 mg/kg; for T − C: target size 500 mm^3
Protocol: Antibody UC10 (hamster IgG anti-mouse CTLA-4) was produced and purified by BMS (Protein Therapeutics Division, Hopewell, N.J., USA). […] Stock solutions of anti-CTLA-4 were kept at −80° C. and were thawed out at 4° C. prior to use. Control antibody consisted of a polyclonal hamster IgG (Jackson ImmunoResearch, West Grove, Pa.). Dosing solutions of Anti-CTLA-4 and hamster IgG control were prepared weekly in sterile phosphate buffered saline (pH 7.0).
Eight to twelve week-old female BALB/c, A/J or C57/BL6 mice were purchased from Harlan, Indianapolis, Ind. Mice received food and water ad libitum, and were maintained in a controlled environment according to AALAC regulations.
as §1, §2
Tt=median tumor size of treated group at the end of treatment
To=median tumor size of treated group at treatment initiation
Ct=median tumor size of control group at the end of treatment
Co=median tumor size at treatment initiation
as §3
Nonparametric analysis using the Wilcoxon test was used to determine statistical significance.
SA1N fibrosarcoma is an inherently immunogenic tumor line which is sensitive to the effects of CTLA-4 blockade. […] Animals were implanted with SA1N cells subcutaneously and treatments were initiated when tumors reached 100-150 mm^3. Experimental groups consisted of cohorts of 8 mice. […] In the combination groups, CTLA-4 mab was administered one day after each chemotherapy treatment.

[2] = system: SA1N fibrosarcoma, M109 lung carcinoma, EMT-6 mammary carcinoma, CT-26 colon carcinoma and B16 melanoma; experiment: Efficacy studies of CTLA-4 mAb with ixabepilone or paclitaxel across murine tumor models (summary statements); assay type: in vivo, mice; settings: animals with complete regressions rechallenged with a lethal dose of tumor cells
Protocol: as §1, §2, §3

M109 lung carcinoma [3] = experiment: M109 lung carcinoma tumor model, initial tumor implantation; assay type: in vivo, mice; settings: for antitumor effect in M109: Study 40, text and FIG. 1
Protocol: as §1, §2
In these studies treatments with chemotherapeutic agents were initiated when tumors were palpable, on day 3 after tumor implantation. […] As in the studies conducted in the SA1N and EMT-6 tumor lines, CTLA-4 mAb was dosed one day after treatment with chemotherapy.

[4] = system: paclitaxel-sensitive (A2780, HCT116 and LS174T) and paclitaxel-resistant human colon tumors (HCT116NM46), ovarian carcinoma (Pat-7 and A2780Tax) and breast …; experiment: Preclinical pharmacology studies of Compound 1 in tumor models; assay type: in vivo
[5] = Study 17, study terminated day 116

For `C/C(=C\c1csc(C)n1)[C@@H]1C[C@@H]2O[C@]2(C)CCC[C@H](C)[C@H](O)[C@@H](C)C(=O)C(C)(C)[C@@H](O)CC(=O)N1` [Ixabepilone, (1S,3S,7S,10R,11S,12S,16R)-7,11-dihydroxy-8,8,10,12,16-pentamethyl-3-[(1E)-1-methyl-2-(2-methyl-4-thiazolyl)ethenyl]-17-oxa-4-azabicyclo[14.1.0]heptadecane-5,9-dione], the “% Tumor-free Mice” value (EMT-6 mammary carcinoma) was 20%, the “T − C” value (EMT-6 mammary carcinoma) was 19 days and the “% Complete Regressions/Total # mice” value (CT26 colon carcinoma; IP every 4 days x3, CTLA-4 mAb 20 mg/kg days 5, 9, 13, chemotherapy days 4, 8, 12) was 0/10. For the same compound, the “antitumor effect in CT26” value (CT26 colon carcinoma) was “neither paclitaxel or ixabepilone produced any measurable antitumor activity”, the “mice that developed tumors after M109 rechallenge” value (M109 lung carcinoma [1]) was 4 out of 5 and the “% TGI” value (SA1N fibrosarcoma; Study 9, calculated Day 36 (last measurement for control group)) was 92%. The “T − C” value (SA1N fibrosarcoma; Study 9, study terminated day 39) was 11 days, the “% TGI” value (SA1N fibrosarcoma; Study 17, calculated Day 33, paclitaxel 24 mg/kg) was 83% and the “T − C” value (SA1N fibrosarcoma; [5]) was 7 days. The “protection against subsequent tumor rechallenge” value [2] was “only partial protection”, the “antitumor effect in M109” value (M109 lung carcinoma [3]) was “very effective” and the “% Tumor-Free Mice after Initial Tumor Implantation” value (M109 lung carcinoma [3]; Study 40, footnote: percentage of animals that develop tumors following implantation on Day 0, chemotherapy from day 3, IP) was 50%.
For `C/C(=C\c1csc(C)n1)[C@@H]1C[C@@H]2O[C@]2(C)CCC[C@H](C)[C@H](O)[C@@H](C)C(=O)C(C)(C)[C@@H](O)CC(=O)N1` (relative stereo) [Compound 1, [1S-[1R*,3R*(E),7R*,10S*,11R*,12R*,16S*]]-7,11-dihydroxy-8,8,10,12,16-pentamethyl-3-[1-methyl-2-(2-methyl-4-thiazolyl)ethenyl]-4-aza-17-oxabicyclo[14.1.0]heptadecane-5,9-dione], the “oral efficacy” value ([4]; oral vs parenteral administration) was “orally efficacious” and the “antitumor activity” value ([4]; paclitaxel-sensitive and paclitaxel-resistant tumor models) was “very impressive and broad spectrum of antitumor activity”.
“5beta,20-Epoxy-1,2alpha,4,7beta,10beta,13alpha-hexahydroxytax-11-en-9-one 4,10-diacetate 2-benzoate 13-ester with (2R,3S)—N-benzoyl-3-phenylisoserine [Paclitaxel]” was tested, and the “antitumor effect of single agent in EMT-6” value (EMT-6 mammary carcinoma) was “ineffective”, the “T − C” value (EMT-6 mammary carcinoma) was 0 days and the “antitumor effect in CT26” value (CT26 colon carcinoma) was “neither paclitaxel or ixabepilone produced any measurable antitumor activity”. The “T − C” value (SA1N fibrosarcoma; Study 11, study terminated day 52) was 13 days, the “T − C” value (SA1N fibrosarcoma; [5]) was 0 days and the “antitumor effect in SA1N” value (SA1N fibrosarcoma; two independent studies) was “variable effect”. The “antitumor effect in M109” value (M109 lung carcinoma [3]) was “did not produce antitumor effects”.
